Structures are written as SMILES. Read-outs that look alike come from different tables or passages of the source.

This test addresses T1, human CCR7 (Homo sapiens, UniProt P32248).
T1 construct: expressed in transfected cells
T1 sequence (P32248 25-378): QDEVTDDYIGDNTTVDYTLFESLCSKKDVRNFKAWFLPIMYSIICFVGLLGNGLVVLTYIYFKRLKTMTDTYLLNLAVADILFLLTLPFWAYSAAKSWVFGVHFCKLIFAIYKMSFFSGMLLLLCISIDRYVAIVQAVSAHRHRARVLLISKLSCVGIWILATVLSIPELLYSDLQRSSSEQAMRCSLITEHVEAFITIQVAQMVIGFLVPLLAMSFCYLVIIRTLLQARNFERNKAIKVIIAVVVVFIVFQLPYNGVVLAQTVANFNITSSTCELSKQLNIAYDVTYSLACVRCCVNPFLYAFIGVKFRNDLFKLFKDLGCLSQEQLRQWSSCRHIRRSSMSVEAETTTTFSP
The test can be described thus: CCL19-induced calcium mobilization assay, U87.CD4 cells expressing CCR7. Type of test: cell-based. The following applies: for Decoy – 0 Active – 1: classification of tested compounds as decoy or active. The protocol:
U87.CD4 cells that stably express either human CCR7, CXCR2, CCR5 or CXCR4 were seeded (20,000 cells/well) in gelatin-coated black-walled polystyrene 96-well plates with clear bottom and incubated overnight at 37°C and 5% CO2. […] Culture medium was removed, and cells were incubated for 45 min at room temperature in the dark. […] Exactly the same protocol was used to record calcium responses in Chinese hamster ovary (CHO)-K1 cells, upon stimulation with adenosine triphosphate (ATP, purchased from Sigma).

Where [1] appears, read: CCL19-induced calcium signaling, read-out: IC50 [μM] block CCL19 induced calcium signaling.

For `CC(O)CNc1c(NCc2ccc3c(c2)OCO3)c(=O)c1=O` (stereo not shown) [C001, CC(O)CNc1c(NCc2ccc3c(c2)OCO3)c(=O)c1=O], the “Decoy – 0 Active – 1” value amounted to 0. The IC50 under setting [1] is over 50 µM.

As to `COc1ccc(N2CCN(c3c(NCc4cccc(Cl)c4)c(=O)c3=O)CC2)cc1` [C002, COc1ccc(N2CCN(c3c(NCc4cccc(Cl)c4)c(=O)c3=O)CC2)cc1], the “Decoy – 0 Active – 1” value amounted to 0. Moreover, under setting [1], the IC50 was over 50 µM.

`O=c1c(NCC2COc3ccccc3O2)c(N2CCSCC2)c1=O` (stereo not shown) [C003, O=c1c(NCC2COc3ccccc3O2)c(N2CCSCC2)c1=O]: the “Decoy – 0 Active – 1” value came to 0. Further, the IC50 under setting [1] was over 50 µM.

`COc1ccc2ccccc2c1CNc1c(N2CCSCC2)c(=O)c1=O` [C004, COc1ccc2ccccc2c1CNc1c(N2CCSCC2)c(=O)c1=O]: the “Decoy – 0 Active – 1” value was found to be 0. Further, under setting [1], the IC50 is over 50 µM.

With `COC(=O)c1ccccc1Nc1c(N2CCNC(=O)C2)c(=O)c1=O` [C005, COC(=O)c1ccccc1Nc1c(N2CCNC(=O)C2)c(=O)c1=O], the “Decoy – 0 Active – 1” value came to 0. Further, under setting [1], the IC50 was over 50 µM.

With `COC(=O)c1sccc1Nc1c(NC2CCCCC2)c(=O)c1=O` [C006, COC(=O)c1sccc1Nc1c(NC2CCCCC2)c(=O)c1=O], the “Decoy – 0 Active – 1” value is on record as 0. Under setting [1], the IC50 was over 50 µM.

In the case of `CC(O)CNc1c(N2CCN(Cc3ccccc3Cl)CC2)c(=O)c1=O` (stereo not shown) [C007, CC(O)CNc1c(N2CC[NH+](Cc3ccccc3Cl)CC2)c(=O)c1=O], the IC50 was over 50 µM and the “Decoy – 0 Active – 1” value was found to be 0.

`O=C(CNc1c(N2CCN(c3ccc(Cl)cc3)CC2)c(=O)c1=O)NCc1ccco1` [C008, O=C(CNc1c(N2CCN(c3ccc(Cl)cc3)CC2)c(=O)c1=O)NCc1ccco1]: the “Decoy – 0 Active – 1” value is listed as 0. Moreover, the IC50 under setting [1] is over 50 µM.

As to `COC(=O)c1sccc1Nc1c(NCc2ccc(Cl)cc2)c(=O)c1=O` [C009, COC(=O)c1sccc1Nc1c(NCc2ccc(Cl)cc2)c(=O)c1=O], the “Decoy – 0 Active – 1” value is 0. Further, the half-inhibitory concentration (IC50) under setting [1] was over 50 µM.

As for `O=C(CNc1c(NCc2ccc3c(c2)OCO3)c(=O)c1=O)N1CCCC1` [C010, O=C(CNc1c(NCc2ccc3c(c2)OCO3)c(=O)c1=O)N1CCCC1], the “Decoy – 0 Active – 1” value was found to be 0. For the same compound, the IC50 under setting [1] was over 50 µM.

`COC(=O)c1ccccc1Nc1c(NCc2ccc(OC)cc2)c(=O)c1=O` [C011, COC(=O)c1ccccc1Nc1c(NCc2ccc(OC)cc2)c(=O)c1=O]: the “Decoy – 0 Active – 1” value was 0. For the same compound, the IC50 under setting [1] was over 50 µM.

For the compound `COc1ccc(CNc2c(NCc3ccc4c(c3)OCO4)c(=O)c2=O)cc1` [C012, COc1ccc(CNc2c(NCc3ccc4c(c3)OCO4)c(=O)c2=O)cc1], the “Decoy – 0 Active – 1” value is listed as 0. Under setting [1], the IC50 was over 50 µM.

Turning to `CC(Nc1c(NCc2ccc3c(c2)OCO3)c(=O)c1=O)c1ccccc1` (stereo not shown) [C013, CC(Nc1c(NCc2ccc3c(c2)OCO3)c(=O)c1=O)c1ccccc1], the “Decoy – 0 Active – 1” value is given as 0. Under setting [1], the IC50 is over 50 µM.

Turning to `COc1ccc(CNc2c(NC(C)c3ccccc3)c(=O)c2=O)cc1OC` (stereo not shown) [C014, COc1ccc(CNc2c(NC(C)c3ccccc3)c(=O)c2=O)cc1OC], the “Decoy – 0 Active – 1” value was 0. Moreover, under setting [1], the IC50 is over 50 µM.

Consider `CN(C)C1(CNc2c(N3CCN(Cc4ccccc4Cl)CC3)c(=O)c2=O)CCCC1` [C015, C[NH+](C)C1(CNc2c(N3CC[NH+](Cc4ccccc4Cl)CC3)c(=O)c2=O)CCCC1], for which the “Decoy – 0 Active – 1” value worked out at 0. The IC50 under setting [1] is over 50 µM.

Regarding `COC(=O)c1ccccc1Nc1c(NCC2CC2)c(=O)c1=O` [C016, COC(=O)c1ccccc1Nc1c(NCC2CC2)c(=O)c1=O], the “Decoy – 0 Active – 1” value turned out to be 0. Moreover, the IC50 under setting [1] is over 50 µM.

As for `O=c1c(NCc2cc(C(F)(F)F)cc(C(F)(F)F)c2)c(NCc2cc(C(F)(F)F)cc(C(F)(F)F)c2)c1=O` [C017, O=C1C(NCC2=CC(C(F)(F)F)=CC(C(F)(F)F)=C2)=C(NCC3=CC(C(F)(F)F)=CC(C(F)(F)F)=C3)C1=O], the “Decoy – 0 Active – 1” value was 0. Also, the IC50 under setting [1] was over 50 µM.

Regarding `O=c1c(Nc2cc(C(F)(F)F)cc(C(F)(F)F)c2)c(Nc2cc(C(F)(F)F)cc(C(F)(F)F)c2)c1=O` [C018, O=C1C(NC2=CC(C(F)(F)F)=CC(C(F)(F)F)=C2)=C(NC3=CC(C(F)(F)F)=CC(C(F)(F)F)=C3)C1=O], the “Decoy – 0 Active – 1” value worked out at 0. The IC50 under setting [1] was over 50 µM.

Regarding `CC1(C)[C@H]2CC[C@@]1(CNc1c(NCc3cc(C(F)(F)F)cc(C(F)(F)F)c3)c(=O)c1=O)[C@H](N1CCCC1)C2` [C019, O=C1C(NC[C@]23CC[C@H](C3(C)C)C[C@H]2N4CCCC4)=C(NCC5=CC(C(F)(F)F)=CC(C(F)(F)F)=C5)C1=O], the “Decoy – 0 Active – 1” value was determined as 0. Under setting [1], the half-maximal inhibitory concentration (IC50) is over 50 µM.

Consider `CN(C)[C@H]1CCCC[C@@H]1Nc1c(NCc2cc(C(F)(F)F)cc(C(F)(F)F)c2)c(=O)c1=O` [C020, O=C1C(N[C@H]2CCCC[C@@H]2N(C)C)=C(NCC3=CC(C(F)(F)F)=CC(C(F)(F)F)=C3)C1=O], for which the “Decoy – 0 Active – 1” value is 0. Moreover, the IC50 under setting [1] is over 50 µM.

Turning to `CN(C)[C@@H]1CCCC[C@H]1Nc1c(NCc2cc(C(F)(F)F)cc(C(F)(F)F)c2)c(=O)c1=O` [C021, CN(C)[C@@H]1CCCC[C@H]1NC(C2=O)=C(NCC3=CC(C(F)(F)F)=CC(C(F)(F)F)=C3)C2=O], the “Decoy – 0 Active – 1” value is 0. Besides, the IC50 under setting [1] is over 50 µM.

Turning to `C[C@H](Nc1c(N[C@H]2C[C@H]3CC[C@@]2(CN2CCCC2)C3(C)C)c(=O)c1=O)c1cccc2ccccc12` [C022, CC1(C)[C@@H]2CC[C@]1(CN3CCCC3)[C@@H](NC(C4=O)=C(N[C@H](C5=CC=CC6=C5C=CC=C6)C)C4=O)C2], the “Decoy – 0 Active – 1” value is 0. In addition, the IC50 under setting [1] was over 50 µM.

As to `O=c1c(Nc2cc(C(F)(F)F)cc(C(F)(F)F)c2)c(N[C@H]2CCCC[C@@H]2N2CCCCC2)c1=O` [C023, O=C1C(N[C@H]2CCCC[C@@H]2N3CCCCC3)=C(NC4=CC(C(F)(F)F)=CC(C(F)(F)F)=C4)C1=O], the “Decoy – 0 Active – 1” value was 0. Moreover, under setting [1], the IC50 is over 50 µM.

As to `CN(C)CCNc1c(Nc2cc(C(F)(F)F)cc(C(F)(F)F)c2)c(=O)c1=O` [C024, O=C1C(NCCN(C)C)=C(NC2=CC(C(F)(F)F)=CC(C(F)(F)F)=C2)C1=O], the “Decoy – 0 Active – 1” value worked out at 0. Besides, the IC50 under setting [1] was over 50 µM.

As for `COc1c(Nc2cc(C(F)(F)F)cc(C(F)(F)F)c2)c(=O)c1=O` [C025, O=C1C(OC)=C(NC2=CC(C(F)(F)F)=CC(C(F)(F)F)=C2)C1=O], the “Decoy – 0 Active – 1” value is 0. Under setting [1], the IC50 is over 30 µM.

Turning to `COc1ccc(C)cc1NC(=S)N1CCN(c2ccccc2O)CC1` [C026, COc1ccc(C)cc1NC(=S)N1CCN(CC1)c1ccccc1O], the “Decoy – 0 Active – 1” value was determined as 0. The IC50 under setting [1] is over 30 µM.

On to `FC(F)(F)c1cccc(Cn2cnc(NC(=S)NCCc3ccccc3)n2)c1` [C027, FC(F)(F)c1cccc(Cn2cnc(NC(=S)NCCc3ccccc3)n2)c1], for which the “Decoy – 0 Active – 1” value is 0. Moreover, under setting [1], the IC50 is over 30 µM.

With `NC(=O)C1CC(O)CN1C(=S)Nc1ccc(S(=O)(=O)N2CCOCC2)cc1` (stereo not shown) [C028, NC(=O)C1CC(O)CN1C(=S)Nc1ccc(cc1)S(=O)(=O)N1CCOCC1], the “Decoy – 0 Active – 1” value is 0. For the same compound, the IC50 under setting [1] is over 30 µM.

Consider `Cc1sc(NC(=S)NC(=O)CCc2ccccc2)c(C(N)=O)c1C` [C029, Cc1sc(NC(=S)NC(=O)CCc2ccccc2)c(C(N)=O)c1C], for which the “Decoy – 0 Active – 1” value worked out at 0. Besides, the IC50 under setting [1] is over 30 µM.

Regarding `O=[N+]([O-])c1ccc(C(O)CNC(=S)NCc2ccc3c(c2)OCO3)cc1` (stereo not shown) [C030, OC(CNC(=S)NCc1ccc2OCOc2c1)c1ccc(cc1)[N+]([O-])=O], the “Decoy – 0 Active – 1” value was 0. Also, the IC50 under setting [1] is over 30 µM.

For `FC(F)(F)c1ccccc1NC(=S)Nc1ccn(Cc2ccc(Cl)cc2)n1` [C031, FC(F)(F)c1ccccc1NC(=S)Nc1ccn(Cc2ccc(Cl)cc2)n1], the “Decoy – 0 Active – 1” value stood at 0. Besides, the IC50 under setting [1] is over 30 µM.

On to `Cc1ccnc(NC(=S)NC(=O)c2cccc3ccccc23)c1` [C032, Cc1ccnc(NC(=S)NC(=O)c2cccc3ccccc23)c1], for which the “Decoy – 0 Active – 1” value is listed as 0. Also, the IC50 under setting [1] is over 30 µM.

`CCc1cccc(NC(=S)NNC(=O)c2cccc([N+](=O)[O-])c2)c1` [C033, CCc1cccc(NC(=S)NNC(=O)c2cccc(c2)[N+]([O-])=O)c1]: the “Decoy – 0 Active – 1” value is recorded as 0. Besides, the IC50 under setting [1] is over 30 µM.

With `O=C1NCCN1CCNC(=S)Nc1cc(C(F)(F)F)cc(C(F)(F)F)c1` [C034, FC(F)(F)c1cc(NC(=S)NCCN2CCNC2=O)cc(c1)C(F)(F)F], the “Decoy – 0 Active – 1” value turned out to be 0. The IC50 under setting [1] is over 30 µM.

With `FC(F)(F)c1ccccc1NC(=S)Nc1ccc(OCc2ccccc2)cc1` [C035, FC(F)(F)c1ccccc1NC(=S)Nc1ccc(OCc2ccccc2)cc1], the “Decoy – 0 Active – 1” value is listed as 0. Moreover, the IC50 under setting [1] was over 30 µM.

Regarding `FC(F)(F)c1cccc(NC(=S)NCc2ccccc2C(F)(F)F)c1` [C036, FC(F)(F)c1cccc(NC(=S)NCc2ccccc2C(F)(F)F)c1], the “Decoy – 0 Active – 1” value worked out at 0. In addition, the IC50 under setting [1] was over 30 µM.

Turning to `Cn1ncc(NC(=S)Nc2ccccc2C(F)(F)F)c1C(N)=O` [C037, Cn1ncc(NC(=S)Nc2ccccc2C(F)(F)F)c1C(N)=O], the “Decoy – 0 Active – 1” value is 0. For the same compound, under setting [1], the IC50 is over 30 µM.

With `OCc1ccccc1NC(=S)NCc1ccccc1` [C038, OCc1ccccc1NC(=S)NCc1ccccc1], the “Decoy – 0 Active – 1” value stood at 0. Moreover, the IC50 under setting [1] is over 30 µM.
